This is an account of results in US20250197384A1, “AZOLE COMPOUND AND ANTIFUNGAL AGENT” (NIHON NOHYAKU CO., LTD., priority 2022, published 2025).

≈ marks a conversion by molar mass, not a printed value.

Common to all, as to type: cell-based
The test system of assay [1] is Aspergillus fumigatus TIMM0063. The experiment in a line: In vitro anti-Aspergillus activity test. Conditions: Table 22, 35° C. for 48 hr, alamar Blue, minimum concentration showing 80% or more inhibition; for MIC: Aspergillus fumigatus, read-out: minimum inhibitory concentration against various fungi (MIC) A. fumigatus. The procedure:
Aspergillus fumigatus TIMM0063 was used as the strain. The test fungi were cultured on a Potato dextrose agar slant medium at 35° C. for 4 days, and then sterilized saline containing 0.1% (v/v) Tween 80 was added to release the conidia. This conidial suspension was filtered through sterile gauze, and the number of conidia was counted using a hemocytometer. The same solution was adjusted to a conidial concentration of 1×10^6 conidia/mL, and this was used as an inoculum. Each compound was dissolved in dimethyl sulfoxide to a predetermined concentration, and diluted 50-fold with 0.165 M MOPS buffered RPMI 1640 liquid medium, and each diluted solution was dispensed into a 96-well microplate by each 100 μL. The inoculum was diluted 50-fold with 0.165 M MOPS buffered RPMI 1640 liquid medium containing 20% alamar Blue™, and the diluted solution was inoculated into the 96-well microplate containing the compound by each 100 μL (final inoculum amount 1.0×10^4 conidia/mL). After static culture at 35° C. for 48 hr, the degree of color development of the alamar Blue™ was measured using a microplate reader (O.D. 570-595 nm), and the minimum concentration showing 80% or more inhibition was defined as the minimum inhibitory concentration (MIC).

The test system of assay [2] is Candida albicans NBRC1270. As to the kind of experiment: In vitro anti-Candida activity test. Particulars: Table 22, 35° C. for 24 hr, alamar Blue, minimum concentration showing 80% or more inhibition; for MIC: Candida albicans, read-out: minimum inhibitory concentration against various fungi (MIC) C. albicans. The method, then: Candida albicans NBRC1270 was used as the strain. The test fungi were cultured on a Sabouraud dextrose agar slant medium at 35° C. for 24 hr, and then suspended in sterilized saline. The number of cells in this suspension was counted using a hemocytometer, and the same suspension was adjusted to a cell concentration of 1.5×10^5 cells/mL, and this was used as an inoculum. Each compound was dissolved in dimethyl sulfoxide to a predetermined concentration, and diluted 50-fold with 0.165 M MOPS buffered RPMI 1640 liquid medium, and each diluted solution was dispensed into a 96-well microplate by each 100 μL. The inoculum was diluted 50-fold with 0.165 M MOPS buffered RPMI 1640 liquid medium containing 20% alamar Blue™, and the diluted solution was inoculated into the 96-well microplate containing the compound by each 100 μL (final inoculum amount 1.5×10^3 cells/mL). After static culture at 35° C. for 24 hr, the degree of color development of the alamar Blue™ was measured using a microplate reader (O.D. 570-595 nm), and the minimum concentration showing 80% or more inhibition was defined as the minimum inhibitory concentration (MIC).
(The colour change of resazurin is a common sign of viable cells or microbes.)

Assay [3] has as its system Trichophyton rubrum NBRC6203. As to the kind of experiment: In vitro anti-tinea fungus activity test (T. rubrum). Conditions: Table 22, 27° C. for 5 days, alamar Blue, minimum concentration showing 80% or more inhibition; for MIC: Trichophyton rubrum, 120 h, read-out: minimum inhibitory concentration against various fungi (MIC) T. rubrum. The method, then: (§1) Trichophyton rubrum NBRC6203 and Trichophyton mentagrophytes TIMM2789 were used as the strains. The test fungi were cultured on a Sabouraud dextrose agar slant medium at 27° C. for 10-13 days, and then suspended in sterilized saline. The number of cells in this suspension was counted using a hemocytometer, and the same suspension was adjusted to a cell concentration of 2×10^6 conidia/mL, and this was used as an inoculum. Each compound was dissolved in dimethyl sulfoxide to a predetermined concentration, and diluted 50-fold with 0.165 M MOPS buffered RPMI 1640 liquid medium, and each diluted solution was dispensed into a 96-well microplate by each 100 μL. The inoculum was diluted 50-fold with 0.165 M MOPS buffered RPMI 1640 liquid medium containing 20% alamar Blue™, and the diluted solution was inoculated into the 96-well microplate containing the compound by each 100 μL (final inoculum amount 2×10^4 conidia/mL). After static culture at 27° C. for 3 days (Trichophyton mentagrophytes) or for 5 days (Trichophyton rubrum), the degree of color development of the alamar Blue™ was measured using a microplate reader (O.D. 570-595 nm), and the minimum concentration showing 80% or more inhibition was defined as the minimum inhibitory concentration (MIC).

Assay [4] concerns Trichophyton mentagrophytes TIMM2789. As to the kind of experiment: In vitro anti-tinea fungus activity test (T. mentagrophytes). Conditions: Table 22, 27° C. for 3 days, alamar Blue, minimum concentration showing 80% or more inhibition; for MIC: Trichophyton mentagrophytes, 72 h, read-out: minimum inhibitory concentration against various fungi (MIC) T. mentagrophytes. The method, then: as §1

With `C=Cc1cnc(C2CS/C(=C(/C#N)n3ccnc3)S2)c(Cl)c1` (stereo not drawn) [compound 3], the “minimum inhibitory concentration against various fungi (MIC) A. fumigatus” value in assay [1] was 2.5 ng/mL (≈ 7.21 nM). The “minimum inhibitory concentration against various fungi (MIC) C. albicans” value in assay [2] worked out at 100 ng/mL (≈ 288 nM). Also, the “minimum inhibitory concentration against various fungi (MIC) T. rubrum” value in assay [3] is at most 1 ng/mL. Moreover, the “minimum inhibitory concentration against various fungi (MIC) T. mentagrophytes” value in assay [4] was at most 1 ng/mL.
Regarding `CCO/N=C/c1cnc(C2CS/C(=C(/C#N)n3cncn3)S2)c(Cl)c1` (stereo not drawn) [compound 21], the “minimum inhibitory concentration against various fungi (MIC) A. fumigatus” value in assay [1] is 5 ng/mL (≈ 12.7 nM). In addition, the “minimum inhibitory concentration against various fungi (MIC) C. albicans” value in assay [2] was determined as 5 ng/mL (≈ 12.7 nM). Moreover, the “minimum inhibitory concentration against various fungi (MIC) T. rubrum” value in assay [3] is at most 1 ng/mL. Moreover, in assay [4], the “minimum inhibitory concentration against various fungi (MIC) T. mentagrophytes” value came to 10 ng/mL (≈ 25.5 nM).
Consider `N#C/C(=C1/SCC(c2ncc(/C(N)=N/OCc3ccccc3)cc2Cl)S1)n1ccnc1` (stereo not drawn) [Compound No. 27, (Z)—N′-(benzyloxy)-5-chloro-6-{(E)-2-[cyano(1H-imidazol-1-yl)methylene]-1,3-dithiolan-4-yl}nicotinimidamide], for which the MIC in assay [1] is 5 ng/mL (≈ 10.7 nM); in assay [2], 1.3 ng/mL (≈ 2.77 nM); in assay [3], at most 1 ng/mL; in assay [4], at most 1 ng/mL.
Turning to `N#C/C(=C1/SCC(c2ncc(/C=N/OCc3ccccc3)cc2Cl)S1)n1cncn1` (stereo not drawn) [compound 23], in assay [1], the “minimum inhibitory concentration against various fungi (MIC) A. fumigatus” value came out at 5 ng/mL (≈ 11 nM). Besides, the “minimum inhibitory concentration against various fungi (MIC) C. albicans” value in assay [2] was 0.6 ng/mL (≈ 1.32 nM). Moreover, the “minimum inhibitory concentration against various fungi (MIC) T. rubrum” value in assay [3] is at most 1 ng/mL. Besides, in assay [4], the “minimum inhibitory concentration against various fungi (MIC) T. mentagrophytes” value is 10 ng/mL (≈ 22 nM).
For `CCOC(=O)Nc1cnc(C2CS/C(=C(/C#N)n3cncn3)S2)c(F)c1` (stereo not drawn) [Compound No. 10, ethyl (E)-(6-{2-[cyano(1H-1,2,4-triazol-1-yl)methylene]-1,3-dithiolan-4-yl}-5-fluoropyridin-3-yl)carbamate], the MIC in assay [1] came out at 25 ng/mL (≈ 63.7 nM); in assay [2], 50 ng/mL (≈ 127 nM); in assay [3], 10 ng/mL (≈ 25.5 nM); in assay [4] it was 10 ng/mL (≈ 25.5 nM).
Regarding `CCO/N=C/c1cnc(C2CS/C(=C(/C#N)n3ccnc3)S2)c(Cl)c1` (stereo not drawn) [Compound No. 25, (E)-2-(4-{3-chloro-5-[(E)-(ethoxyimino)methyl]pyridin-2-yl}-1,3-dithiolan-2-ylidene)-2-(1H-imidazol-1-yl)acetonitrile], the MIC was 2.5 ng/mL (≈ 6.38 nM) in assay [1], 0.6 ng/mL (≈ 1.53 nM) in assay [2], at most 1 ng/mL in assay [3] and at most 1 ng/mL in assay [4].
